Assay results reported in patent publication US9994515B2, “Aryl naphthyl methanone oxime(s) and process for preparation thereof” (Council of Scientific & Industrial Research, priority 2013, dated 2018).
Structures can show the parent of a compound that is named as a salt. Where two headings read alike, the source gives them in different places.

Key:
HL60 = assay: MTT cytotoxicity assay in HL-60 cells; assay type: cell-based; details: Homo sapiens
NIH3T3 = assay: MTT cytotoxicity assay in NIH3T3 fibroblasts; assay type: cell-based, mouse
Kasumi 1 = assay: Cytotoxicity in Kasumi 1 cells; assay type: cell-based; details: Table 2; oxalate
[1] = test system: PBMCs from patients with BCR-ABL Y253H mutation; assay: MTT cytotoxicity in PBMCs from CML patient with Y253H BCR-ABL mutation; assay type: cell-based, human; details: 5 μM, 48 h
[2] = test system: PBMCs from patients with BCR-ABL E255V mutation; assay: MTT cytotoxicity in PBMCs from CML patient with E255V BCR-ABL mutation; assay type: cell-based, human; details: 5 μM, 48 h
HL-60 = assay: Cell cycle analysis (PI staining, flow cytometry) in HL-60; assay type: cell-based; details: 0.5 μM
Experimental: Propidium iodide (PI) staining of K562 cells (A) and HL-60 cells (B) treated with vehicle (DMSO) or 0.5 μM Centans, followed by flow cytometry analysis to find % distribution of cells in different phases of the cell cycle. Data has been shown as percent of total cells from data pooled from three independent experiments. (C and D). mRNA expression of cell cycle regulatory factors—K562 (C) or HL-60 (D) cells were treated with Vehicle or Centans, followed by mRNA isolation and cDNA preparation and quantitative real-time PCR (p21, p27 and cyclin D1). Graphs represented pooled data from three independent experiments. *P<0.05, **P<0.01,***P<0.001 compared to vehicle treated control.

BCR-ABL = target: T1, BCR-ABL (Homo sapiens, UniProt P00519); assay: BCR-ABL phosphorylation by immunoblotting in K562 cells; assay type: cell-based; details: 0.5 μM, 1 μM Centans or 1 μM Imatinib, 48 h, western blot
T1 construct: Centans causes growth arrest and apoptosis in Bcr-Abl positive K562 cells; BCR (N-terminal part of breakpoint cluster region protein, P11274); endogenous in cells; host or cells: K562; the other entry of the earlier key: BCR (P11274, Breakpoint cluster region protein)
Experimental: Kinase activity of Bcr-Abl is the major cause of CML, and since Centans causes growth arrest and apoptosis in Bcr-Abl positive K562 cells, phosphorylation status of Bcr-Abl which is representative of its kinase activity was measured by immunoblotting.
FIG. 3. […] ELF4E and β-actin were used as loading control.

Ishikawa = assay: MTT assay in Ishikawa endometrial adenocarcinoma cells; assay type: cell-based; details: Homo sapiens, Ishikawa, Table 6, 48 h, 10 point dose response
Colo205 = assay: Sulphorhodamine B assay in Colo205 colon cancer cells; assay type: cell-based; details: Homo sapiens, COLO 205; SRB assay
MDA-MB231 = assay: Annexin V/PI apoptosis flow cytometry in MDA-MB231; assay type: cell-based; details: 24 h
Experimental: To assess if the cell death induced by centans in MCF-7 and MDA-MB231 lines is apoptotic in nature, apoptosis was measured by flow cytometry using annexin V/PI staining kit from Sigma according to manufacturer's instructions.
FIG. 6 Apoptosis induction by Centans in breast cancer cells. Annexin V/PI staining of (A) MCF-7 and (B) MDA-MB231 cells were treated with vehicle (DMSO) or Centans at indicated concentrations for 24 h and […] was assessed by flow cytometry using the FL1-H channel (Annexin-V) and FL2-H channel (PI) of a Becton Dickinson FACS Calibur. Shown are representative dot plots. Quantification of flow cytometry data shown as percent of total cells (right panel). Data presented as mean±SEM from three independent experiments; *P<0.05, **P<0.01, and ***P<0.001 compared to control.

MCF-7 xenograft tumor = MCF-7 xenograft tumor in nude mice; assay type: in vivo, mouse; details: 16 mg·kg−1·day−1
From the text: The effect of Centans on the growth of MCF-7 xenograft tumor was studied. […] Beyond 25 d, vehicle treated mice bearing tumors (control) show significant mortality (data not shown).
Tumors from mice treated with Centans presented with large areas of stroma where deletion of epithelial cells had occurred as evident from few mitotic figures (FIG. 8B).
FIG. 8 Regression of xenograft tumor by Centans in athymic nude mice. (A) Increase in relative tumor volume over time in various treatment groups indicated. N=10 mice/group; data represent mean±S.E.M. *P<0.05 and **P<0.01 compared to vehicle (carboxymethyl cellulose). (B) Effect of Centans treatment on tumor morphology. Representative tumor sections from mice treated with vehicle or Centans (16 mg·kg^−1·day^−1) for 25 days. (C) Effect of Centans treatment on PCNA levels were analyzed by Western blotting from in tumors of vehicle or Centans treated mice. Data represent mean±S.E.M. **P<0.01 compared to vehicle-treated control.

[3] = test system: CD133+ DLD1 colon cancer cells; assay: CD133+ colon cancer stem cell population by flow cytometry; assay type: cell-based; details: 20 uM, 24 h, vehicle 15.30%
Experimental: FIG. 9. Centans reduces CD133+ colon cancer stem cells with a higher efficacy than salinomycin. DLD1 colon cancer cells were treated with indicated compounds for 24h following which the CD133+ population was assessed by flow cytometry using CD133 antibody or relevant isotype control antibody (BD biosciences) in a Becton Dickinson FACS Calibur. Numbers in the dot plot represent % CD133+ cells.

[4] = test system: PBMCs isolated from healthy individuals; assay: MTT cytotoxicity in PBMCs from healthy controls; details: 1 μM, 48 h
[5] = test system: PBMCs isolated from BCR-ABL-positive CML patients; assay: MTT cytotoxicity in PBMCs from BCR-ABL-positive CML patients; details: 1 μM, 48 h; for % cell death, Average: group average

T1 sequence (P00519 with tags, fused parts or gaps): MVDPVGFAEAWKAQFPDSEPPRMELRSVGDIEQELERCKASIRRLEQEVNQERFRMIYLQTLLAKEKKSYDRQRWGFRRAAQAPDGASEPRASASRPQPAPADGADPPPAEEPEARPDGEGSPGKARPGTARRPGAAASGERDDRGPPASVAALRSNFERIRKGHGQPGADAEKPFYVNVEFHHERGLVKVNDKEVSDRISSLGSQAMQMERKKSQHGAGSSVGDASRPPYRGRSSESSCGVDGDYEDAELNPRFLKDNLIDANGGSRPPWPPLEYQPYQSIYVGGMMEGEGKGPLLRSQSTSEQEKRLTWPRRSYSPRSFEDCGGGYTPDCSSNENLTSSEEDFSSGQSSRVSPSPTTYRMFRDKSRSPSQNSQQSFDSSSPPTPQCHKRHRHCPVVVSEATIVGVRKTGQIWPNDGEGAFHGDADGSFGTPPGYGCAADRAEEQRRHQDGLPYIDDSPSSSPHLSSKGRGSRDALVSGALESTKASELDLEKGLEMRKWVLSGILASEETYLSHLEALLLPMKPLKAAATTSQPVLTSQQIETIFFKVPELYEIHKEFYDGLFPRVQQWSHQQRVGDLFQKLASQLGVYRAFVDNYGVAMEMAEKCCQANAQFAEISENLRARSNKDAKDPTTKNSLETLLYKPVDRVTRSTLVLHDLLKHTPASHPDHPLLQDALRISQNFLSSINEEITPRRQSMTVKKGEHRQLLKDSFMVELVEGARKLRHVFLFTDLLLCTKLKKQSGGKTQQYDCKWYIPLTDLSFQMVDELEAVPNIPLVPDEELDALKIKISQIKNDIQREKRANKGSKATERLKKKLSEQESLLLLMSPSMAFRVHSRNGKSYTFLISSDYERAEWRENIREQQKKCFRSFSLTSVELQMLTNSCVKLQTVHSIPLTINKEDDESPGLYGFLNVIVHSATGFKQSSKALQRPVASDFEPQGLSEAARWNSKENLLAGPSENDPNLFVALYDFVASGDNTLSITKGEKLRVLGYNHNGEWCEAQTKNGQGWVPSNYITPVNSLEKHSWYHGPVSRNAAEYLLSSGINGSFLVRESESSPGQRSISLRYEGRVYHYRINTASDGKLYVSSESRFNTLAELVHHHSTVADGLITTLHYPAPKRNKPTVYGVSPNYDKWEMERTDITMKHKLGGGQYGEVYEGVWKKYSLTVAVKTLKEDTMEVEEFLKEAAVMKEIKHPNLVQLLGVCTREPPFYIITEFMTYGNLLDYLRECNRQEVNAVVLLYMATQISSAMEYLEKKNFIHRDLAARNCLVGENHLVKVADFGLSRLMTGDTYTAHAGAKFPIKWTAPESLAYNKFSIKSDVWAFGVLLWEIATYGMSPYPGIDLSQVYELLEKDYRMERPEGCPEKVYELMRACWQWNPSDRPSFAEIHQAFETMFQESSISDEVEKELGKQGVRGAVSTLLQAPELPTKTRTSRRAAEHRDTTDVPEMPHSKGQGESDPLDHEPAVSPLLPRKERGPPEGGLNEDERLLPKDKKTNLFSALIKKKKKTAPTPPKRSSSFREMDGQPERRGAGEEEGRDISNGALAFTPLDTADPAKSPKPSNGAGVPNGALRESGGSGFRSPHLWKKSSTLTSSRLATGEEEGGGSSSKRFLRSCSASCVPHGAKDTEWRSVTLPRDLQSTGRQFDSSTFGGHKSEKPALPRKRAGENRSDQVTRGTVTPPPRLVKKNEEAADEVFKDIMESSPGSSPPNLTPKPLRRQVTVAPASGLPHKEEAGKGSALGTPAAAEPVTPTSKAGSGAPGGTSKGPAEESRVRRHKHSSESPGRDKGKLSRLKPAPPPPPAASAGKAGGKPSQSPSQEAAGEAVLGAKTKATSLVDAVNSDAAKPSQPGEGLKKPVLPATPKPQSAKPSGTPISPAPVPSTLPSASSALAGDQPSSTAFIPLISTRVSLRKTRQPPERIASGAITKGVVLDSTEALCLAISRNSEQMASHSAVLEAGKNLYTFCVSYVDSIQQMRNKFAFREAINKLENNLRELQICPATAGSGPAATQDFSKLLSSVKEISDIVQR

CCN(CC)CCO/N=C(/c1ccc(SC)cc1)c1cccc2ccccc12 [Compound 5d, (4-(methylthio)phenyl)(naphthalen-1-yl)methanone O-2-(diethylamino)ethyl oxime oxalate]
IC50 (HL60; HL-60, 48 h, Table 3, MTT, 48 h, 10 point dose response, read-out: IC 50 HL 60): 5.99 µM | IC50 (HL60; HL-60, Table 2): 5.99 µM | IC50 (NIH3T3; Mus musculus, NIH3T3, Table 2, normal cell line): > 20 µM | IC50 (NIH3T3; Table 1, MTT assay after 48 h treatment, oxalate): > 20 µM | IC50 (Kasumi 1): 6.78 µM | % cell death [1]: 42.93% | % cell death [2]: 48.18% | cell cycle distribution (HL-60): G1 and apoptotic sub-populations were significantly increased | phosphorylation of BCR-ABL (pBCR-ABL) (BCR-ABL): dose dependently inhibited phosphorylation of BCR-ABL | IC50 (Ishikawa): 12 µM | IC50 (Colo205): 4.2 µM | apoptotic cell population (MDA-MB231): concentration-dependent increase in apoptotic cell population | reduction in relative tumor volume compared to vehicle treated mice (MCF-7 xenograft tumor; days 21 and 25 after inoculation): ~50% | PCNA levels in tumors (MCF-7 xenograft tumor; western blotting): significant reduction in the levels of PCNA | CD133+ population after treatment (minus isotype control) [3]: 2.94% | % cell death ([4]; healthy control sample C1): 14.01% | % cell death ([4]; healthy control sample C2): 20.65% | % cell death ([4]; healthy control sample C3): 16.93% | % cell death, Average ([4]; healthy control, average of C1-C3): 17.2% | % cell death ([5]; freshly diagnosed patient P1): 68.82% | % cell death ([5]; freshly diagnosed patient P10): 73.32% | % cell death ([5]; freshly diagnosed patient P11): 55.61% | % cell death ([5]; freshly diagnosed patient P15): 71.19% | % cell death, Average ([5]; freshly diagnosed): 67.235% | % cell death ([5]; imatinib resistant patient P2): 69.46% | % cell death ([5]; imatinib resistant patient P13): 70.03% | % cell death ([5]; imatinib resistant patient P14): 77.68% | % cell death ([5]; imatinib resistant patient P17): 78.93% | % cell death ([5]; imatinib resistant patient P18): 64.49% | % cell death, Average ([5]; imatinib resistant): 72.118% | % cell death ([5]; imatinib treated/responder patient P3): 50.92% | % cell death ([5]; imatinib treated/responder patient P12): 62.41% | % cell death ([5]; imatinib treated/responder patient P16): 76.59% | % cell death, Average ([5]; imatinib treated/responder): 63.31%
